{"source": "patent US20070259094A1", "about": "“N-acetylglucosamine as a food and beverage additive” (priority 2002, published 2007)", "key": {"[1]": {"test": "Bran muffin baking behaviour at 400° F. (204° C.)", "type": "physicochemical", "details": "bran muffins baked at 204° C.", "procedure": "Measure out 4 times 415 mL dry muffin mix (sufficient to make 6 muffins each) to make up the following formulae\nAdd to each dry mix 160 mL of water and ¼ of egg mixture and mix thoroughly.\nPour equal amounts into 6 muffin cups for each of the formulae.\nPreheat oven to 400° F. or 204° C., bake each formula separately and observing cooking behaviour."}, "[2]": {"test_system": "primary knee osteoarthritis", "details": "cited from earlier work"}, "[3]": {"test": "pH of aqueous solution", "type": "physicochemical", "details": "for pH of solution: 2 grams in 180 mL of water", "procedure": "Two grams of glucosamine sulphate in 180 mL of water gives a solution with a pH of 6.06 and glucosamine hydrochloride gives a solution with a pH of 6.07.\nA solution of 2 grams of N-acetylglucosamine in 180 mL of water has a pH of 7.40."}, "[4]": {"test_system": "osteoarthritis of the temporomandibular joint", "details": "cited from earlier work; for patients improved (positive clinical response = 20% decrease TMJ pain with function): GS 500 mg tid, ibuprofen 400 mg tid, p=0.73 between groups; for number of patients improved (positive clinical response): of 21 GS and 18 ibuprofen completers"}, "[5]": {"test_system": "osteoarthritis (knee)", "details": "4-week course, cited from earlier work; for symptoms of osteoarthritis: glucosamine sulphate 1,500 mg, ibuprofen 1,200 mg"}, "[6]": {"details": "cited from earlier work; for half-life: doses as high as 20 grams per human subject; for adverse events: five subjects"}, "[7]": {"test_system": "COX-2", "details": "cited from earlier work; for inhibiting the production of COX-2: human chondrocytes stimulated with IL-1"}, "[8]": {"test_system": "IL-6", "details": "cited from earlier work; for inhibiting the production of IL-6: human chondrocytes stimulated with IL-1"}, "[9]": {"test_system": "Inducible NO Synthetase", "details": "cited from earlier work; for inhibiting the production of nitric oxide synthetase: human chondrocytes stimulated with IL-1"}, "[10]": {"details": "cited from earlier work; for absolute bioavailability: compared with IV at 100%"}, "[11]": {"details": "cited from earlier work"}, "[12]": {"test_system": "IL-1β-induced NO production in normal human articular chondrocytes", "details": "cited from earlier work; for effect on IL-1β-induced NO production: normal human articular chondrocytes; for Inhibitory Activity on IL-1β induced NO Production: table of various sugars"}, "[13]": {"test_system": "intestinal mucosa", "details": "cited from earlier work"}, "[14]": {"test_system": "severe treatment-resistant inflammatory bowel disease", "details": "cited from earlier work"}, "[15]": {"test_system": "intestinal mucosa", "test": "Incorporation of glucosamine and N-acetylglucosamine into glycoproteins of intestinal mucosa in vitro", "type": "cell-based, human", "details": "normal subjects, on average", "description": "Inflammatory conditions can also interfere with the incorporation of glucosamine into glycosaminoglycans. Intestinal mucosal from patients with ulcerative colitis and Crohn's disease and from patients without inflammatory disease were studied in vitro. N-acetylglucosamine is preferentially incorporated into glycoproteins over glucosamine. In normal subjects—ratio ranges were from 0.04 to 0.26 with a mean 0.097. Thus on average 10 times more N-acetylglucosamine is incorporated into macromolecules than glucosamine. In IBD the mean ratio of incorporation of glucosamine to N-acetylglucosamine is 0.039 for Crohn's and 0.031 for ulcerative colitis. In other words, 25 to 32 times more N-acetylglucosamine was incorporated into macromolecules compared to glucosamine (2)."}, "[16]": {"test_system": "COX-1", "details": "constitutively expressed, human chondrocytes; cited from earlier work"}, "[17]": {"details": "number of patients of 106, three years"}, "[18]": {"details": "rectal administration as sole therapy"}, "[19]": {"details": "IL-1β-stimulated human chondrocytes"}}, "note": "Read-outs that look alike come from different tables or passages of the source.", "data": [{"molecule": "N[C@H]1C(O)O[C@H](CO)[C@@H](O)[C@@H]1O.O=S(=O)(O)O", "note": "(stereo partly drawn) [Glucosamine Sulphate]", "values": [{"measurement": "stability in the baking process", "setting": "[1]", "result": "break down in the baking process"}, {"measurement": "significant joint space narrowing", "setting": "[2]; 1.5 grams per day, three years, versus placebo, p<0.05", "result": "did not"}, {"measurement": "fasting plasma glucose concentrations", "setting": "[2]; during the study", "result": "decreasing slightly"}, {"measurement": "Withdrawal from Study Due to Adverse Events", "setting": "[2]; [17]", "result": 21}, {"measurement": "Withdrawal from Study, Lack of Efficacy", "setting": "[2]; [17]", "result": 3}, {"measurement": "incidence and type of adverse events versus placebo", "setting": "[2]; three-year period", "result": "not different between the two groups"}, {"measurement": "routine laboratory tests (system organs, metabolic functions)", "setting": "[2]; three-year period", "result": "did not show any abnormalities"}, {"measurement": "pH (1% in water)", "setting": "[3]", "result": 6.06}, {"measurement": "pH of solution", "setting": "[3]", "result": 6.06}, {"measurement": "patients improved (positive clinical response = 20% decrease TMJ pain with function)", "setting": "[4]; 90 days", "result": 71, "unit": "%"}, {"measurement": "patients discontinued due to dizziness", "setting": "[4]; 90 days", "result": "one"}, {"measurement": "patients discontinued due to stomach upset", "setting": "[4]; 90 days", "result": "one"}, {"measurement": "decrease in TMJ pain with function and acetaminophen use, between-group comparison", "setting": "[4]; between Day 90 and 120, compared with ibuprofen", "result": "significantly greater decrease"}, {"measurement": "number of patients improved (positive clinical response)", "setting": "[4]", "result": "Fifteen"}, {"measurement": "patients dropped out because of adverse events / side effects", "setting": "[5]", "result": "None"}, {"measurement": "symptoms of osteoarthritis", "setting": "[5]", "result": "reduced symptoms"}]}, {"molecule": "Cl.N[C@H]1C(O)O[C@H](CO)[C@@H](O)[C@@H]1O", "note": "(stereo partly drawn) [Glucosamine hydrochloride]", "values": [{"measurement": "stability in the baking process", "setting": "[1]", "result": "break down in the baking process"}, {"measurement": "half-life", "setting": "[6]; IV", "result": 150, "unit": "min"}, {"measurement": "adverse events", "setting": "[6]", "result": "no adverse events reported"}, {"measurement": "blood sugar when administered with 7 units of insulin", "setting": "[6]; human, in vivo, iv", "result": "showed a rise in blood sugar"}, {"measurement": "blood sugar when administered without insulin", "setting": "[6]; human, in vivo, iv", "result": "Neither agent showed a rise in blood sugar"}, {"measurement": "pH (1% in water)", "setting": "[3]", "result": 6.07}, {"measurement": "pH of solution", "setting": "[3]", "result": 6.07}]}, {"molecule": "N[C@H]1C(O)O[C@H](CO)[C@@H](O)[C@@H]1O", "note": "(stereo partly drawn) [Glucosamine]", "values": [{"measurement": "inhibiting the production of COX-2", "setting": "[7]", "result": "not effective"}, {"measurement": "inhibiting the production of IL-6", "setting": "[8]", "result": "not effective"}, {"measurement": "inhibiting the production of nitric oxide synthetase", "setting": "[9]", "result": "not effective"}, {"measurement": "absolute bioavailability", "setting": "[10]; IM administration", "result": 93, "unit": "%"}, {"measurement": "absolute bioavailability", "setting": "[10]; oral administration", "result": 44, "unit": "%"}, {"measurement": "administered dose excreted by the kidneys", "setting": "[10]; oral route", "result": "about 10%"}, {"measurement": "administered dose excreted via the feces", "setting": "[10]; oral route", "result": 11, "unit": "%"}, {"measurement": "total body insulin sensitivity", "setting": "[11]; forearm glucosamine infusion, twenty human volunteers", "result": "did not affect"}, {"measurement": "baseline arteriovenous glucose differences", "setting": "[11]; glucosamine infusion", "result": "not affected"}, {"measurement": "forearm blood flow", "setting": "[11]; glucosamine infusion", "result": "did not alter"}, {"measurement": "forearm skeletal muscle glucose uptake", "setting": "[11]; glucosamine infusion", "result": "did not affect"}, {"measurement": "effect on IL-1β-induced NO production", "setting": "[12]", "result": "inhibit"}, {"measurement": "Inhibitory Activity on IL-1β induced NO Production", "setting": "[12]", "result": "Weak"}, {"measurement": "mean ratio of incorporation of glucosamine to N-acetylglucosamine", "setting": "[13]; Crohn's", "result": 0.039}, {"measurement": "ratio of incorporation of glucosamine to N-acetylglucosamine, mean", "setting": "[13]; normal subjects", "result": 0.097}, {"measurement": "mean ratio of incorporation of glucosamine to N-acetylglucosamine", "setting": "[13]; ulcerative colitis", "result": 0.031}]}, {"molecule": "O=C[C@H](O)[C@@H](O)[C@H](O)[C@H](O)C(=O)O", "note": "[Glucuronic Acid]", "values": [{"measurement": "effect on IL-1β-induced NO production", "setting": "[12]", "result": "do not express this activity"}, {"measurement": "Inhibitory Activity on IL-1β induced NO Production", "setting": "[12]", "result": "Nil"}]}, {"molecule": "CC(=O)N[C@@H]1[C@@H](O)[C@@H](O)[C@@H](CO)O[C@@H]1O", "note": "[N-Acetylgalactosmine]", "values": [{"measurement": "Inhibitory Activity on IL-1β induced NO Production", "setting": "[12]", "result": "Strong"}]}, {"molecule": "CC(=O)N[C@H]1C(O)O[C@H](CO)[C@@H](O)[C@@H]1O", "note": "(stereo partly drawn) [N-Acetylglucosamine, N-acetylglucosamine]", "values": [{"measurement": "adverse side-effects of treatment", "setting": "[14]; 3 to 6 grams daily in three divided doses", "result": "no adverse side-effects of treatment were noted in any patient"}, {"measurement": "histology in all cases biopsied", "setting": "[14]; in vivo", "result": "evidence of histological improvement"}, {"measurement": "children with symptomatic Crohn's stricture requiring surgery", "setting": "[14]; of 7, mean follow-up >2.5 years", "result": 3}, {"measurement": "children showing clear improvement", "setting": "[14]; oral adjunct therapy, 3-6 g daily, 12 children", "result": "Eight"}, {"measurement": "children requiring resection", "setting": "[14]; oral adjunct therapy, 12 children", "result": "four"}, {"measurement": "cases of remission", "setting": "[14]; rectal administration as sole therapy, nine children", "result": "two"}, {"measurement": "cases of clear improvement", "setting": "[14]; [18]", "result": "three"}, {"measurement": "cases of no effect", "setting": "[14]; [18]", "result": "two"}, {"measurement": "COX-2 Expression, Protein", "setting": "[7]; [19]", "result": "inhibits"}, {"measurement": "COX-2 Expression, mRNA", "setting": "[7]; [19]", "result": "inhibits"}, {"measurement": "inhibiting the production of COX-2", "setting": "[7]", "result": "inhibiting"}, {"measurement": "times more N-acetylglucosamine incorporated into macromolecules than glucosamine", "setting": "[15]", "result": 10, "unit": "times"}, {"measurement": "IL-6 Production", "setting": "[8]; [19]", "result": "inhibits"}, {"measurement": "inhibiting the production of IL-6", "setting": "[8]", "result": "inhibiting"}, {"measurement": "stability in the baking process", "setting": "[1]", "result": "stable during the baking process"}, {"measurement": "Inducible NO Synthetase Expression, Protein", "setting": "[9]; [19]", "result": "inhibits"}, {"measurement": "Inducible NO Synthetase Expression, mRNA", "setting": "[9]; [19]", "result": "inhibits"}, {"measurement": "inhibiting the production of nitric oxide synthetase", "setting": "[9]", "result": "inhibiting"}, {"measurement": "ability to inhibit IL-1β-induced NO production relative to glucosamine", "setting": "[12]; 10 mM concentration", "result": 5, "unit": "times"}, {"measurement": "effect on IL-1β-induced NO production", "setting": "[12]", "result": "inhibit"}, {"measurement": "Inhibitory Activity on IL-1β induced NO Production", "setting": "[12]", "result": "Strong"}, {"measurement": "half-life", "setting": "[6]; IV", "result": 220, "unit": "min"}, {"measurement": "blood sugar when administered without insulin", "setting": "[6]; IV, human", "result": "Neither agent showed a rise in blood sugar"}, {"measurement": "administered dose excreted in the urine", "setting": "[6]; IV, in 24 hours", "result": 54, "unit": "%"}, {"measurement": "adverse events", "setting": "[6]", "result": "no adverse events reported"}, {"measurement": "pH (1% in water)", "setting": "[3]", "result": 7.4}, {"measurement": "pH of solution", "setting": "[3]", "result": 7.40}, {"measurement": "COX-1 Expression, Protein", "setting": "[16]", "result": "No Inhibition"}]}, {"molecule": "CC(=O)N[C@@H]1C(O)O[C@H](CO)[C@@H](O)[C@@H]1O", "note": "(stereo partly drawn) [N-Acetylmannosamine]", "values": [{"measurement": "effect on IL-1β-induced NO production", "setting": "[12]", "result": "do not express this activity"}, {"measurement": "Inhibitory Activity on IL-1β induced NO Production", "setting": "[12]", "result": "Nil"}]}, {"molecule": "CC(C)Cc1ccc(C(C)C(=O)O)cc1", "note": "(stereo not drawn) [ibuprofen]", "values": [{"measurement": "patients improved (positive clinical response = 20% decrease TMJ pain with function)", "setting": "[4]; 90 days", "result": 61, "unit": "%"}, {"measurement": "patients discontinued due to inadequate pain control", "setting": "[4]; 90 days", "result": "one"}, {"measurement": "patients discontinued due to stomach upset", "setting": "[4]; 90 days", "result": 3}, {"measurement": "number of patients improved (positive clinical response)", "setting": "[4]", "result": 11}, {"measurement": "patients dropped out because of adverse events / side effects", "setting": "[5]", "result": 10, "unit": "%"}, {"measurement": "symptoms of osteoarthritis", "setting": "[5]", "result": "reduced symptoms"}]}]}
